# {(KFF)3K-eg1} = H-(KFF)3K peptide (K lysine, F phenylalanine) with eg1 linker (8-amino-3,6-dioxaoctanoyl), on the PNA N terminus (5' end); {NH2} = C-terminal amide
# Key:
# Assay type in all cases: cell-based, Acinetobacter baumannii
# CRAB strain AC44 = assay: BPP-PNA MIC, broth microdilution
# Protocol: (§1) MIC values were determined by broth microdilution according to standard protocols with a few modifications. An overnight bacterial cell culture was diluted to approximately 5 × 10^5 CFU/mL in non-cation-adjusted Muller Hinton Broth (MHB). Then, 180 µL bacterial solutions were dispensed into a low-bind 96-well plate (Thermo-Scientific, Roskilde, Denmark) along with 20 µL of BPP-PNA compound (BPP-PNA was serially diluted 2-fold from 16 to 0.5 µM in a 96-well plate). The plate was incubated in a Tecan Genios plate reader (GMI, Minnesota, Ramsey, USA) at 37 °C for 18 h with linear shaking, OD was measured every 20 min at 595 nm. […] The minimum bactericidal concentration (MBC) values were determined by plating 10 µL samples from the wells with no visible turbidity onto Mueller–Hinton agar plates. The MBC is determined the lowest concentration of BPP-PNA that reduces the viability of the initial bacterial inoculum by ≥99.9% (3-log reduction in CFU/mL). A minimum of two independent experiments (biological replicates) of the assay were conducted, and two technical replicates were used in each experiment for each bacterium, compound, and concentration.
# A. baumannii ATCC 19606 = assay: BPP-PNA MIC, broth microdilution; details: 37 °C, 18 h
# Protocol: as §1
# CRAB strain AC5 = assay: BPP-PNA MIC, broth microdilution; details: MHB without cation (Oxoid); 37 °C, 18 h
# Protocol: as §1
# CRAB strain AC7 = assay: BPP-PNA MIC, broth microdilution; details: MHB without cation (Oxoid); 37 °C, 18 h
# Protocol: as §1
# CRAB strain AC8 = assay: BPP-PNA MIC, broth microdilution; details: MHB without cation (Oxoid); 37 °C, 18 h
# Protocol: as §1
# CRAB strain AC6 = assay: BPP-PNA MIC, broth microdilution; details: MHB without cation (Oxoid); 37 °C, 18 h
# Protocol: as §1
# CRAB strain AC1 = assay: BPP-PNA MIC, broth microdilution; details: MHB without cation (Oxoid); 37 °C, 18 h
# Protocol: as §1
# CRAB strain AC4 = assay: BPP-PNA MIC, broth microdilution; details: MHB without cation (Oxoid); 37 °C, 18 h
# Protocol: as §1
# CRAB strain AC9 = assay: BPP-PNA MIC, broth microdilution; details: MHB without cation (Oxoid); 37 °C, 18 h
# Protocol: as §1
# CRAB strain AC3 = assay: BPP-PNA MIC, broth microdilution; details: MHB without cation (Oxoid); 37 °C, 18 h
# Protocol: as §1
# CRAB strain AC2 = assay: BPP-PNA MIC, broth microdilution
# Protocol: as §1
# CRAB strains = assay: BPP-PNA MIC/MBC summarised over the panel of strains
# Protocol: as §1
# CRAB strain AC46 = assay: BPP-PNA MIC, broth microdilution
# Protocol: as §1, with “An overnight bacterial cell culture was diluted to approximately 5 × 10^5 CFU/mL in non-cation-adjusted Muller Hinton Broth (MHB).” left out
# A. baumannii SSI1104 = assay: BPP-PNA MIC, broth microdilution
# Protocol: as §1, with “An overnight bacterial cell culture was diluted to approximately 5 × 10^5 CFU/mL in non-cation-adjusted Muller Hinton Broth (MHB).” left out
# [1] = test system: antibiotic resistant clinical isolate AC46; assay: Minimum bactericidal concentration (MBC) assay; details: AC46, 24 h incubation, 1–8 μM
# Protocol: as §1
# [2] = MHB without cation (Oxoid), 37 °C, 18 h
# [3] = Table 4 (anti-rne), brand of medium not given, non-cation-adjusted MHB by method
substance,measurement,setting,value
"H-(KFF)3K-eg1-GAGTCCAGGAC-NH2 (all peptide nucleic acid (PNA), 5' {(KFF)3K-eg1}, 3' {NH2}) [PNA 5615, anti-ftsZ mismatch control of 5612]","MIC, AC44",CRAB strain AC44; [2],16 µM
same,"MIC, ATCC 19606",A. baumannii ATCC 19606; MHB without cation (Oxoid),8 µM
same,"MIC, AC5",CRAB strain AC5,16 µM
same,"MIC, AC7",CRAB strain AC7,16 µM
same,"MIC, AC8",CRAB strain AC8,16 µM
same,"MIC, AC6",CRAB strain AC6,8 µM
same,"MIC, AC1",CRAB strain AC1,16 µM
same,"MIC, AC4",CRAB strain AC4,16 µM
same,"MIC, AC9",CRAB strain AC9,16 µM
same,"MIC, AC3",CRAB strain AC3,8 µM
same,"MIC, AC2",CRAB strain AC2; [2],16 µM
same,MIC50,"CRAB strains; over the CRAB and ATCC 19606 strains of Table 3, MHB without cation (Oxoid)",16 µM
same,"MIC, AC46",CRAB strain AC46; [2],16 µM
same,"MIC, SSI 1104",A. baumannii SSI1104; [2],16 µM
"H-(KFF)3K-eg1-TTTCATGGGTG-NH2 (antisense; N-terminal (KFF)3K-eg1 peptide, C-terminal amide, backbone not given here, further chemistry not given here) [PNA 5656, anti-rne peptide-PNA conjugate, match, −5 to +6]",CFU reduction in MBC assay compared to mismatch control,[1],very significant CFU reduction
same,"MIC, AC44",CRAB strain AC44; [3],2 µM
same,"MIC, ATCC 19606",A. baumannii ATCC 19606; [3],2 µM
same,"MIC, AC2",CRAB strain AC2; [3],2 µM
same,concentration with bactericidal activity against carbapenem-resistant A. baumannii,CRAB strains,4 µM
same,bactericidal concentration relative to MIC,CRAB strains; CRAB strains,1–2 × MIC
same,MIC (complete growth inhibition) over the CRAB strains tested,CRAB strains; several A. baumannii strains,2 µM
same,MIC of match PNA lower than mismatch control (mismatch discrimination),CRAB strains; strains of Table 2 (5612 vs 5615) or Table 4 (5656 vs 5822),four-fold
same,"MIC, AC46",CRAB strain AC46; [3],2 µM
same,"MIC, SSI 1104",A. baumannii SSI1104; [3],2 µM
